Earlier results, collected in patent publication US9107941B2, “Methods and compositions for reducing L-pipecolic acid effects in animals” (SarTec Corporation, priority 2006, dated 2015).

How the values were obtained:
chicks = settings: ICV injection

SMILES: O=C(O)[C@@H]1CCCCN1 [L-PIP, L-pipecolic acid]
- food intake (chicks): inhibited food intake
- sleep-like behavior (chicks): induced sleep-like behavior
- apoptosis in neuronal cells (neuronal cells): induce apoptosis
